Laboratory results reported in US6809065B2, “Herbicide containing substituted pyrazole derivative as active ingredient” (SDS Biotech K.K., priority 2001, dated 2004).

Legend:
Monochoria vaginalis = assay: Paddy field treatment (Test Example 3); type: in vivo; conditions: paddy pot, submerged 4 cm, dropped on water surface 10th day after transplantation, 1 kg active ingredient per hectare, evaluated 21st day
Procedure, shortened: (§1)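 Paddy soil in pots was puddled and flooded to 4 cm, weeds were sown, and two-leaf Koshihikari rice was transplanted at 3 cm depth. Ten days after transplanting, wettable powder was applied onto the water surface at 1 kg active ingredient per hectare. Herbicidal effect was index-scored 21 days later.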

Scirpus juncoides = assay: Paddy field treatment (Test Example 3); type: in vivo; conditions: paddy pot, submerged 4 cm, dropped on water surface 10th day after transplantation, 1 kg active ingredient per hectare, evaluated 21st day
Procedure, shortened: as §1

Ammannia multiflora = assay: Paddy field treatment (Test Example 3); type: in vivo; conditions: paddy pot, submerged 4 cm, dropped on water surface 10th day after transplantation, 1 kg active ingredient per hectare, evaluated 21st day
Procedure, shortened: as §1

[1] = test system: wheat (Triticum aestivum); assay: Upland soil treatment (Test Example 2), crop; type: in vivo; conditions: soil surface treatment next day after sowing, 1 kg active ingredient per hectare, evaluated 21st day, lower index = higher safety
Procedure, shortened: (§2)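 Scored 21 days post-application on an index scale where higher values mean greater herbicidal effect on weeds and lower values mean greater crop safety. Treatment was a water-diluted wettable powder sprayed evenly onto the soil surface at 1 kg active ingredient per hectare, one day after seeding.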

soybean (Glycine max) [2] = assay: Upland soil treatment (Test Example 2), crop; type: in vivo; conditions: soil surface treatment next day after sowing, 1 kg active ingredient per hectare, evaluated 21st day, lower index = higher safety
Procedure, shortened: as §2

Setaria viridis [3] = assay: Upland soil treatment (Test Example 2); type: in vivo; conditions: soil surface treatment next day after sowing, wettable powder, 1 kg active ingredient per hectare, evaluated 21st day after application
Procedure, shortened: as §2

Stellaria media [4] = assay: Upland soil treatment (Test Example 2); type: in vivo; conditions: soil surface treatment next day after sowing, wettable powder, 1 kg active ingredient per hectare, evaluated 21st day after application
Procedure, shortened: as §2

Digitaria adscendens [5] = assay: Upland soil treatment (Test Example 2); type: in vivo; conditions: soil surface treatment next day after sowing, wettable powder, 1 kg active ingredient per hectare, evaluated 21st day after application
Procedure, shortened: as §2

Chenopodium album [6] = assay: Upland soil treatment (Test Example 2); type: in vivo; conditions: soil surface treatment next day after sowing, wettable powder, 1 kg active ingredient per hectare, evaluated 21st day after application
Procedure, shortened: as §2

Setaria viridis [7] = assay: Upland field foliage treatment (Test Example 1); type: in vivo; conditions: foliage treatment 14th day after sowing, wettable powder, 1 kg active ingredient per hectare, evaluated 21st day after application
Procedure, shortened: (§3)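 Foliar spray, 1 kg a.i./ha, wettable powder in water, applied 14 d post-sowing; seeds covered by ~1 cm upland soil. Index scoring at 21 d. Higher index = stronger weed control; for crops, lower index = greater safety.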

Stellaria media [8] = assay: Upland field foliage treatment (Test Example 1); type: in vivo; conditions: foliage treatment 14th day after sowing, wettable powder, 1 kg active ingredient per hectare, evaluated 21st day after application
Procedure, shortened: as §3

Digitaria adscendens [9] = assay: Upland field foliage treatment (Test Example 1); type: in vivo; conditions: foliage treatment 14th day after sowing, wettable powder, 1 kg active ingredient per hectare, evaluated 21st day after application
Procedure, shortened: as §3

Chenopodium album [10] = assay: Upland field foliage treatment (Test Example 1); type: in vivo; conditions: foliage treatment 14th day after sowing, wettable powder, 1 kg active ingredient per hectare, evaluated 21st day after application
Procedure, shortened: as §3

Echinochloa spp. = assay: Paddy field treatment (Test Example 3); type: in vivo, Echinochloa crusgalli; conditions: paddy pot, submerged 4 cm, dropped on water surface 10th day after transplantation, 1 kg active ingredient per hectare, evaluated 21st day
Procedure, shortened: as §1

[11] = test system: rice (Oryza sative, variety: Koshihikari); assay: Paddy field treatment (Test Example 3), crop; type: in vivo, Oryza sativa; conditions: transplanted rice two-leaf period, water surface treatment 10th day after transplantation, 1 kg active ingredient per hectare, evaluated 21st day, lower index = higher safety
Procedure, shortened: as §1

[12] = test system: wheat (Triticum aestivum); assay: Upland field foliage treatment (Test Example 1), crop; type: in vivo; conditions: foliage treatment 14th day after sowing, 1 kg active ingredient per hectare, evaluated 21st day, lower index = higher safety
Procedure, shortened: as §3

soybean (Glycine max) [13] = assay: as above; type: in vivo; conditions: foliage treatment 14th day after sowing, 1 kg active ingredient per hectare, evaluated 21st day, lower index = higher safety
Procedure, shortened: as §3

Structure (SMILES) | Herbicidal activity Monochoria vaginalis (Monochoria vaginalis) | Herbicidal activity Scirpus juncoides (Scirpus juncoides) | Herbicidal activity Ammannia multiflora (Ammannia multiflora) | Herbicidal activity Triticum aestivum [1] | Herbicidal activity Glycine max (soybean (Glycine max) [2]) | Herbicidal activity Setaria viridis (Setaria viridis [3]) | Herbicidal activity Stellaria media (Stellaria media [4]) | Herbicidal activity Digitaria adscendens (Digitaria adscendens [5]) | Herbicidal activity Chenopodium album (Chenopodium album [6]) | Herbicidal activity Setaria viridis (Setaria viridis [7]) | Herbicidal activity Stellaria media (Stellaria media [8]) | Herbicidal activity Digitaria adscendens (Digitaria adscendens [9]) | Herbicidal activity Chenopodium album (Chenopodium album [10]) | Herbicidal activity Echinochloa spp. (Echinochloa spp.) | Herbicidal activity Oryza sativa [11] | Herbicidal activity Triticum aestivum [12] | Herbicidal activity Glycine max (soybean (Glycine max) [13])
COC=C(CCn1cc(C)c(-c2ccccc2)n1)C(=O)OC [Compound 47] | 2 (herbicidal effect of not less than 30% by weight and less than 50% by weight) | 3 (herbicidal effect of not less than 50% by weight and less than 70% by weight) | 2 (herbicidal effect of not less than 30% by weight and less than 50% by weight) | 0 (herbicidal effect of not less than 0% by weight and less than 10% by weight) | 0 (herbicidal effect of not less than 0% by weight and less than 10% by weight) | 4 (herbicidal effect of not less than 70% by weight and less than 90% by weight) | 3 (herbicidal effect of not less than 50% by weight and less than 70% by weight) | 4 (herbicidal effect of not less than 70% by weight and less than 90% by weight) | 4 (herbicidal effect of not less than 70% by weight and less than 90% by weight) | 3 (herbicidal effect of not less than 50% by weight and less than 70% by weight) | 4 (herbicidal effect of not less than 70% by weight and less than 90% by weight) | 3 (herbicidal effect of not less than 50% by weight and less than 70% by weight) | 4 (herbicidal effect of not less than 70% by weight and less than 90% by weight) | 3 (herbicidal effect of not less than 50% by weight and less than 70% by weight) | 0 (herbicidal effect of not less than 0% by weight and less than 10% by weight) | 0 (herbicidal effect of not less than 0% by weight and less than 10% by weight) | 0 (herbicidal effect of not less than 0% by weight and less than 10% by weight)
COC=C(Cn1nc(-c2ccccc2)cc1SC)C(=O)OC [Compound 37] | 3 (herbicidal effect of not less than 50% by weight and less than 70% by weight) | 3 (herbicidal effect of not less than 50% by weight and less than 70% by weight) | 3 (herbicidal effect of not less than 50% by weight and less than 70% by weight) | 0 (herbicidal effect of not less than 0% by weight and less than 10% by weight) | 0 (herbicidal effect of not less than 0% by weight and less than 10% by weight) | 5 (herbicidal effect of not less than 90% by weight) | 5 (herbicidal effect of not less than 90% by weight) | 5 (herbicidal effect of not less than 90% by weight) | 4 (herbicidal effect of not less than 70% by weight and less than 90% by weight) | 4 (herbicidal effect of not less than 70% by weight and less than 90% by weight) | 5 (herbicidal effect of not less than 90% by weight) | 4 (herbicidal effect of not less than 70% by weight and less than 90% by weight) | 5 (herbicidal effect of not less than 90% by weight) | 3 (herbicidal effect of not less than 50% by weight and less than 70% by weight) | 0 (herbicidal effect of not less than 0% by weight and less than 10% by weight) | 0 (herbicidal effect of not less than 0% by weight and less than 10% by weight) | 0 (herbicidal effect of not less than 0% by weight and less than 10% by weight)
COC=C(Cn1nc(-c2ccccc2)c(Cl)c1C)C(=O)OC [Compound 12] | 5 (herbicidal effect of not less than 90% by weight) | 4 (herbicidal effect of not less than 70% by weight and less than 90% by weight) | 5 (herbicidal effect of not less than 90% by weight) | 0 (herbicidal effect of not less than 0% by weight and less than 10% by weight) | 0 (herbicidal effect of not less than 0% by weight and less than 10% by weight) | 4 (herbicidal effect of not less than 70% by weight and less than 90% by weight) | 4 (herbicidal effect of not less than 70% by weight and less than 90% by weight) | 5 (herbicidal effect of not less than 90% by weight) | 5 (herbicidal effect of not less than 90% by weight) | 4 (herbicidal effect of not less than 70% by weight and less than 90% by weight) | 5 (herbicidal effect of not less than 90% by weight) | 5 (herbicidal effect of not less than 90% by weight) | 5 (herbicidal effect of not less than 90% by weight) | 4 (herbicidal effect of not less than 70% by weight and less than 90% by weight) | 0 (herbicidal effect of not less than 0% by weight and less than 10% by weight) | 0 (herbicidal effect of not less than 0% by weight and less than 10% by weight) | 1 (herbicidal effect of not less than 10% by weight and less than 30% by weight)
COC=C(Cn1nc(-c2cccc(Cl)c2)cc1SC)C(=O)OC [Compound 38] | 4 (herbicidal effect of not less than 70% by weight and less than 90% by weight) | 3 (herbicidal effect of not less than 50% by weight and less than 70% by weight) | 3 (herbicidal effect of not less than 50% by weight and less than 70% by weight) | 0 (herbicidal effect of not less than 0% by weight and less than 10% by weight) | 0 (herbicidal effect of not less than 0% by weight and less than 10% by weight) | 4 (herbicidal effect of not less than 70% by weight and less than 90% by weight) | 4 (herbicidal effect of not less than 70% by weight and less than 90% by weight) | 4 (herbicidal effect of not less than 70% by weight and less than 90% by weight) | 4 (herbicidal effect of not less than 70% by weight and less than 90% by weight) | 4 (herbicidal effect of not less than 70% by weight and less than 90% by weight) | 5 (herbicidal effect of not less than 90% by weight) | 4 (herbicidal effect of not less than 70% by weight and less than 90% by weight) | 5 (herbicidal effect of not less than 90% by weight) | 3 (herbicidal effect of not less than 50% by weight and less than 70% by weight) | 0 (herbicidal effect of not less than 0% by weight and less than 10% by weight) | 0 (herbicidal effect of not less than 0% by weight and less than 10% by weight) | 1 (herbicidal effect of not less than 10% by weight and less than 30% by weight)
